The target in assay [1] is T1, Cyclin-dependent kinase-like 5 (Homo sapiens, UniProt O76039).
T1 sequence (O76039 whole entry): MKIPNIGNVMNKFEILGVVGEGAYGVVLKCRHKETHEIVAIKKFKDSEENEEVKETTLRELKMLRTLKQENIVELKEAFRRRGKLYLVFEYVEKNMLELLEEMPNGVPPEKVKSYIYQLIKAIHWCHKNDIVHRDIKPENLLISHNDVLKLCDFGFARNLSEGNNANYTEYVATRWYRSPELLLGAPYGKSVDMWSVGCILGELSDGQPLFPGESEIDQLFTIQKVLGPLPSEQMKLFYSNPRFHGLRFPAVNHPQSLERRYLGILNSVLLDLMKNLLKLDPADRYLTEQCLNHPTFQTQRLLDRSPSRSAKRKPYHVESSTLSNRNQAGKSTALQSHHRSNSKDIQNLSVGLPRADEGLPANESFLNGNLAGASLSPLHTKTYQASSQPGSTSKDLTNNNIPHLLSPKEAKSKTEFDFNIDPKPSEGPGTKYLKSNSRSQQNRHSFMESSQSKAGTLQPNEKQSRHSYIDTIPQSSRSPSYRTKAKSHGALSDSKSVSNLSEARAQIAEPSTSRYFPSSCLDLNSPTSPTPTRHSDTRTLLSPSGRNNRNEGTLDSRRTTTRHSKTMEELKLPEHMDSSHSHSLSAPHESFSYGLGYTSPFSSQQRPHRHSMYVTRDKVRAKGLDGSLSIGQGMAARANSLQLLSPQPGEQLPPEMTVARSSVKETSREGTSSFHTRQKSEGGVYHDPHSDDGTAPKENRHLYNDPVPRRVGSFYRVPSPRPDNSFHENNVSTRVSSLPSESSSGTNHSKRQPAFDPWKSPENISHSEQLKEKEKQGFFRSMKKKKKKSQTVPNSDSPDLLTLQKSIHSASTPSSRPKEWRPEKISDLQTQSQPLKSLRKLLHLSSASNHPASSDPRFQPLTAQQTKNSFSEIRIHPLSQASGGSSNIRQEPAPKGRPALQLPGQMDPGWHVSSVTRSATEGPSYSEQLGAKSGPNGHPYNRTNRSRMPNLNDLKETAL

Assay [2] concerns the target Cyclin-dependent kinase 17 (Homo sapiens, UniProt Q00537).
The target of the next assay is T2, Ephrin type-A receptor 1 (Homo sapiens, UniProt P21709).
T2 sequence (P21709 whole entry): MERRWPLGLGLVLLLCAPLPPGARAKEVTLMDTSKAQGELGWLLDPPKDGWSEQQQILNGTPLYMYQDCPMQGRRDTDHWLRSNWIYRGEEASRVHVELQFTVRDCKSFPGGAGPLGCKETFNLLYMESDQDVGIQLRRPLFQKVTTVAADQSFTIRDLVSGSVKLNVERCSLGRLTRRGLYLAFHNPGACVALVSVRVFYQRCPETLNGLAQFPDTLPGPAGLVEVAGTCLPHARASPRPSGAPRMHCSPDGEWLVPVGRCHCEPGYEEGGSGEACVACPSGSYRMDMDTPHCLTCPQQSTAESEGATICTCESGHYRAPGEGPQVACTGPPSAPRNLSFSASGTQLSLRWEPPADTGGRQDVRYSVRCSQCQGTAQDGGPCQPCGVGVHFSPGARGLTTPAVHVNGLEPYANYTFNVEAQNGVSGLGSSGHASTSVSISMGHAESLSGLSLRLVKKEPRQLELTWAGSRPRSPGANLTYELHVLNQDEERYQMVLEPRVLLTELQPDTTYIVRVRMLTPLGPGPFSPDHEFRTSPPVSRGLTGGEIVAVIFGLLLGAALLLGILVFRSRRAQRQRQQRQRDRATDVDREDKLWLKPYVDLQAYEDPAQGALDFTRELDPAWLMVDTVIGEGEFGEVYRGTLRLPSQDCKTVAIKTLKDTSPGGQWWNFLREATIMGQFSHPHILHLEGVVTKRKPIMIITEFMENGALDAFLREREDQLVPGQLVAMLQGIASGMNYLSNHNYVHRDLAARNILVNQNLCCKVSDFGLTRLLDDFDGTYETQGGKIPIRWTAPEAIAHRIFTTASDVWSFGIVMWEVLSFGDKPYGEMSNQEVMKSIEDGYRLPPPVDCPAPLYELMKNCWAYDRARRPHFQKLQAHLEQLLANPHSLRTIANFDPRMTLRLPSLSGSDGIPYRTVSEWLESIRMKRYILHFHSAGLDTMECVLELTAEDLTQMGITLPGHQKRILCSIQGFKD

The target in assay [3] is Protein kinase C theta type (Homo sapiens, UniProt Q04759).
Chain of Protein kinase C theta type (Q04759 whole entry): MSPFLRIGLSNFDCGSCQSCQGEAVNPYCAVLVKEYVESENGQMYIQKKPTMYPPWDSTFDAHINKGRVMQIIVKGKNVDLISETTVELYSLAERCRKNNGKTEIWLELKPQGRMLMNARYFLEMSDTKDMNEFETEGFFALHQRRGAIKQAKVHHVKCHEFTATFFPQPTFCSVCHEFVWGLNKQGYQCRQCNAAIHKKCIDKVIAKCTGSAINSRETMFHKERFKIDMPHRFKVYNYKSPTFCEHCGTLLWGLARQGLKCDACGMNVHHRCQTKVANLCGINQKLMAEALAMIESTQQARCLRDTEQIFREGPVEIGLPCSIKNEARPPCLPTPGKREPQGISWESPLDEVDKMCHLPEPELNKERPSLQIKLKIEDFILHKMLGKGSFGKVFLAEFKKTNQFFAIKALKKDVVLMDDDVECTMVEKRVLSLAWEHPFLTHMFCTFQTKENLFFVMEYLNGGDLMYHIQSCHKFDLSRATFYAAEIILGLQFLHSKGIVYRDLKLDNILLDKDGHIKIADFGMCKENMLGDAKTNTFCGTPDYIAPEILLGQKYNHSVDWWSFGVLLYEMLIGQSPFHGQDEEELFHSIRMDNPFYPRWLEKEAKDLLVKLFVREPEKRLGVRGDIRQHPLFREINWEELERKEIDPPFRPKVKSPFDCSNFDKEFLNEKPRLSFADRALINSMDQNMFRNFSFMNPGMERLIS
Assay [4] deals with Tyrosine-protein kinase Lck (Homo sapiens, UniProt P06239).
Chain of Tyrosine-protein kinase Lck (P06239 whole entry): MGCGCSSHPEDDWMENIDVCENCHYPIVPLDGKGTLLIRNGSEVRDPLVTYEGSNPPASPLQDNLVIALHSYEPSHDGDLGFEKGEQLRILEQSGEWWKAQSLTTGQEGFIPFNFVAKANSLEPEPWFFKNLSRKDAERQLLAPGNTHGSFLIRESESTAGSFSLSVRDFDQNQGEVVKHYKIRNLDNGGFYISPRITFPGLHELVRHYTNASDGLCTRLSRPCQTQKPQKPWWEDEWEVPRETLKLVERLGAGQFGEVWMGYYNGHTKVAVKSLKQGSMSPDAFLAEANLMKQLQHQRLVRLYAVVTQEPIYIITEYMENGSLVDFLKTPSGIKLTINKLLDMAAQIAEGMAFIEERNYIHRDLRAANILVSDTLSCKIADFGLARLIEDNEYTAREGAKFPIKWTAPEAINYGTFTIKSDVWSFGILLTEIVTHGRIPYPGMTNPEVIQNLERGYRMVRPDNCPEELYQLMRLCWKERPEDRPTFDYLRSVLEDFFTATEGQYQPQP
In a further assay the target is Focal adhesion kinase 1 (Homo sapiens, UniProt Q05397).
Chain of Focal adhesion kinase 1 (Q05397 whole entry): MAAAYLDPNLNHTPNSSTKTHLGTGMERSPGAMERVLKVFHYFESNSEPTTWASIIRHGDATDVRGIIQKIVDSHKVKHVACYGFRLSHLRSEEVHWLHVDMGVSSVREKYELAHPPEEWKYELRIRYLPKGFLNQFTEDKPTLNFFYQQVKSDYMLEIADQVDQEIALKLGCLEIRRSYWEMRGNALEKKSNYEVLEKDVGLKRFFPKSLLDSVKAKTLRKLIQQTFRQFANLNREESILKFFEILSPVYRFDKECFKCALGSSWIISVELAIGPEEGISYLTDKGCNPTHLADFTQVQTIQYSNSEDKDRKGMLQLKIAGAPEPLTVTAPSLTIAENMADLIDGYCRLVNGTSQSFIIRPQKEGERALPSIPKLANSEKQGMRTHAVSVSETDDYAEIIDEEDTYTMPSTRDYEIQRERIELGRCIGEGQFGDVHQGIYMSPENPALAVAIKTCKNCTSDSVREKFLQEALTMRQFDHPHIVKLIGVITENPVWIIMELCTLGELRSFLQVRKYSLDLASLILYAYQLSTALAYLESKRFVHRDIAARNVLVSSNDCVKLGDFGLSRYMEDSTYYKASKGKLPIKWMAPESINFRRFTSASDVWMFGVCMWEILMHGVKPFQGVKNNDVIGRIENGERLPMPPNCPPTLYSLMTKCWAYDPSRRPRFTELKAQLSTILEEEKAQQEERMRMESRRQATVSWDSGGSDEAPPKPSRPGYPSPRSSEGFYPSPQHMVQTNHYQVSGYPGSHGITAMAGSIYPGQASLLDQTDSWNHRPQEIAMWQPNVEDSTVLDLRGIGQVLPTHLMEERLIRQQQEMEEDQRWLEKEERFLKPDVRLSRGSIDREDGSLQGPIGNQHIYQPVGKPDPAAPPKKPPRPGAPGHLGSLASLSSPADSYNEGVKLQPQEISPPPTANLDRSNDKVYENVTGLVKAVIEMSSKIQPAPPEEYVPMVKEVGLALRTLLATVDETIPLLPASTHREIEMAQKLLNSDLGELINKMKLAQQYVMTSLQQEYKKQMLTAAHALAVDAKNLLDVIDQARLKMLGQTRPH

Activity calls are given as the source filed them. Cut-off read from the data, not from the text of the source, for most assays here: actives have a measured Kd and inactives only a lower limit.
Note: in the data inactive means no Kd found up to 30 µM.

Chain of Cyclin-dependent kinase 17 (Q00537 whole entry): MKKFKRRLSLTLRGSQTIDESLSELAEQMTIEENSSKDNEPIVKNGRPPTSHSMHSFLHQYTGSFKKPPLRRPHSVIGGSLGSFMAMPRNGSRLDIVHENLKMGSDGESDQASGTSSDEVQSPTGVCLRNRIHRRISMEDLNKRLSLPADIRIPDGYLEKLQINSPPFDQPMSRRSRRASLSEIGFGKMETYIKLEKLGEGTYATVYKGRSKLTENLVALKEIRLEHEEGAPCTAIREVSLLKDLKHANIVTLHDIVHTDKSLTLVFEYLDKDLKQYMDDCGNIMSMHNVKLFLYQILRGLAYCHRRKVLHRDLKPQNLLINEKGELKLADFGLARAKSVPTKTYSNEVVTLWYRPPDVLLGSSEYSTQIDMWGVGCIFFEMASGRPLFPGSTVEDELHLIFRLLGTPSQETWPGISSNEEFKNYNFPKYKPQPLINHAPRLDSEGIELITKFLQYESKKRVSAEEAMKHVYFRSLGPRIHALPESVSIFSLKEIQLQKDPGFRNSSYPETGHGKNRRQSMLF

With `CCN(CCCOc1ccc2c(Nc3cc(CC(=O)Nc4cccc(F)c4)n[nH]3)ncnc2c1)CCOP(=O)(O)O` [BARASERTIB], the Kd (in assay [1]; in assay [2]; on Ephrin type-A receptor 1) was > 30 µM (inactive) in each case.
`COc1cc2ncnc(Nc3ccc(F)c(Cl)c3)c2cc1NC(=O)/C=C/CN1CCCCC1` [DACOMITINIB ANHYDROUS]: the Kd (in assay [1]; in assay [2]; in assay [3]; in assay [4]; at Focal adhesion kinase 1) was > 30 µM (inactive) each time.
Consider `COCCN1CCN(Cc2ccc(-c3n[nH]c4c3C(=O)c3c(NC(=O)NN5CCOCC5)cccc3-4)cc2)CC1` [RGB-286638], for which the Kd (in assay [3]; at Ephrin type-A receptor 1; in assay [4]; at Focal adhesion kinase 1) was > 30 µM (inactive) each time.
With `COc1cc2nccc(Oc3ccc(NC(=O)C4(C(=O)Nc5ccc(F)cc5)CC4)cc3)c2cc1OC` [CABOZANTINIB], the Kd in assay [2] is > 30 µM (inactive); in assay [3] it was > 30 µM (inactive); in assay [4] it was 1.05 µM (active); on Focal adhesion kinase 1, > 30 µM (inactive).
Turning to `C=CCN(/C=C1/C(=O)O[C@H](COC)[C@@]2(C)C1=C(O)C(=O)C1=C2[C@H](OC(C)=O)C[C@]2(C)C(=O)CC[C@@H]12)CC=C` [SONOLISIB], the Kd (in assay [1]; in assay [2]; at Ephrin type-A receptor 1; in assay [4]; at Focal adhesion kinase 1) was > 30 µM (inactive) each time.
On to `COc1cccc2cc(-c3nc([C@H]4CC[C@H](C(=O)O)CC4)n4ncnc(N)c34)[nH]c12` [OSI-027], for which the Kd (in assay [3]; in assay [4]; at Focal adhesion kinase 1) was > 30 µM (inactive) each time.
`O=c1[nH]c([C@@H]2CCCN2)nc2c1oc1ccc(Cl)cc12`: the Kd (in assay [3]; at Ephrin type-A receptor 1; in assay [4]; at Focal adhesion kinase 1) was > 30 µM (inactive) throughout.
Turning to `COc1ccc(-c2ccc3ncc4c(c3c2)n(-c2ccc(N3CCNCC3)c(C(F)(F)F)c2)c(=O)n4C)cn1` [BGT-226 FREE BASE], the Kd (in assay [2]; in assay [3]; on Ephrin type-A receptor 1; in assay [4]; at Focal adhesion kinase 1) was > 30 µM (inactive) throughout.
On to `Cc1c(Cn2c(C)nc3c(C(=O)O)cc(N4CCOCC4)cc32)cccc1C(F)(F)F` [GSK-2636771], for which the Kd (in assay [2]; in assay [3]; on Ephrin type-A receptor 1; in assay [4]; at Focal adhesion kinase 1) was > 30 µM (inactive) throughout.
On to `Cc1cc(C(=O)Nc2cc(Oc3ccc4nc(NC(=O)C5CC5)cn4n3)ccc2C)n(C)n1` [TAK-593], for which the Kd (in assay [1]; in assay [3]; at Ephrin type-A receptor 1; in assay [4]; at Focal adhesion kinase 1) was > 30 µM (inactive) in each case.
Consider `COc1cc2ncnc3c2cc1OCCCCCN(C)Cc1ccc(Br)cc1N3` [JNJ-26483327], for which the Kd (in assay [2]; in assay [3]; on Ephrin type-A receptor 1; in assay [4]; at Focal adhesion kinase 1) was > 30 µM (inactive) in each case.
Regarding `CCOc1ccn(-c2ccc(F)cc2)c(=O)c1C(=O)Nc1ccc(Oc2ccnc(N)c2Cl)c(F)c1` [BMS-777607], the Kd in assay [1] and in assay [3] was > 30 µM (inactive) throughout.
Regarding `FC(F)(F)c1ccc(CNc2ccc(Cc3c[nH]c4ncc(Cl)cc34)cn2)cn1` [PEXIDARTINIB], the Kd in assay [2] is > 30 µM (inactive); in assay [3], 0.006 µM; at Ephrin type-A receptor 1, > 30 µM (inactive); in assay [4], > 30 µM (inactive); at Focal adhesion kinase 1 it was > 30 µM (inactive).
For the compound `CC[C@@](C)(Nc1ccnc(-c2c[nH]c3ncccc23)n1)C(=O)NCC(F)(F)F` [DECERNOTINIB], the Kd is > 30 µM (inactive) in assay [1]; 0.139 µM (active) in assay [2]; > 30 µM (inactive) at Ephrin type-A receptor 1; > 30 µM (inactive) in assay [4]; > 30 µM (inactive) on Focal adhesion kinase 1.
With `CC(C)CC(=O)Nc1[nH]nc2c1CN(C(=O)C1CCN(C)CC1)C2(C)C` [PHA-793887], the results for the dissociation constant Kd (in assay [3]; at Ephrin type-A receptor 1) were 2.34 µM (active) and > 30 µM (inactive), respectively.
Take `COc1cccc(Nc2ncnn3ccc(CN4CC[C@@H](N)[C@H](O)C4)c23)c1` [BMS-690514]: the Kd in assay [1] is > 30 µM (inactive); in assay [3], > 30 µM (inactive); at Ephrin type-A receptor 1, > 30 µM (inactive); in assay [4] it was 0.514 µM (active); on Focal adhesion kinase 1, > 30 µM (inactive).
On to `COc1cc(F)c(F)c(Nc2ccc(I)cc2F)c1NS(=O)(=O)C1(C[C@H](O)CO)CC1` [REFAMETINIB], for which the Kd (in assay [1]; in assay [2]; in assay [3]; on Ephrin type-A receptor 1; in assay [4]; on Focal adhesion kinase 1) was > 30 µM (inactive) throughout.
For the compound `C=CC(=O)Nc1cccc(Nc2nc(Nc3ccc(N4CCN(C(C)=O)CC4)cc3OC)ncc2C(F)(F)F)c1` [ROCILETINIB], the Kd in assay [2] is > 30 µM (inactive); in assay [4] it was > 30 µM (inactive); on Focal adhesion kinase 1 it was 0.433 µM (active).
On to `COc1cc(Nc2ncc(F)c(Nc3ccc4c(n3)N(COP(=O)(O)O)C(=O)C(C)(C)O4)n2)cc(OC)c1OC` [FOSTAMATINIB], for which the Kd in assay [1] is > 30 µM (inactive); in assay [2], > 30 µM (inactive); in assay [3], > 30 µM (inactive); on Ephrin type-A receptor 1, > 30 µM (inactive); in assay [4], > 30 µM (inactive); on Focal adhesion kinase 1, 5.4 µM (active).
Consider `O=S(=O)(c1cccc2cnccc12)N1CCCNCC1` [FASUDIL], for which the Kd (in assay [2]; at Ephrin type-A receptor 1) was > 30 µM (inactive) in each case.
Turning to `N#CCNC(=O)c1ccc(-c2ccnc(Nc3ccc(N4CCOCC4)cc3)n2)cc1` [MOMELOTINIB], the Kd in assay [1] is > 30 µM (inactive); in assay [2], 1.38 µM.
For `NC[C@@](O)(c1ccc(Cl)cc1)c1ccc(-c2cn[nH]c2)cc1` [AT-13148], the Kd (in assay [3]; in assay [4]; on Focal adhesion kinase 1) was > 30 µM (inactive) each time.
As to `CCc1nc(C(N)=O)c(Nc2ccc(N3CCC(N4CCN(C)CC4)CC3)c(OC)c2)nc1NC1CCOCC1` [GILTERITINIB], the Kd (in assay [1]; in assay [2]; at Ephrin type-A receptor 1; in assay [4]; at Focal adhesion kinase 1) was > 30 µM (inactive) throughout.
Regarding `Cc1c(NC(=O)OC[C@@H]2COCCN2)cn2ncnc(Nc3ccc4c(cnn4Cc4cccc(F)c4)c3)c12` [AC-480], the Kd (in assay [3]; on Ephrin type-A receptor 1; in assay [4]; at Focal adhesion kinase 1) was > 30 µM (inactive) in each case.

As a reminder, the Kd is a measure of binding affinity in units of concentration.

The values are drawn from ChEMBL document CHEMBL3991601, “The target landscape of clinical kinase drugs” (Science, 2017).
